Calls of active or inactive are those of the source.
Experiments:
[1] = T. cruzi growth inhibition in host cells, dose response, cell-based, plate reader, dry powder, set 2 (AID 652275); type: functional
[2] = anti-trypanosomal activity in BESM host cells – imaging, CA-I/72 strain, bovine embryo skeletal muscle, dry powder, dose response (AID 651885); type: functional, cell-based
[3] = antileishmanial activity on axenic amastigotes – plate reader, dry powder, dose response (AID 651892); type: functional, cell-based
[4] = African trypanosome bloodstream form growth inhibition – STIB900 strain, plate reader, cherry pick, dose response (AID 651893); type: functional, cell-based, Trypanosoma brucei rhodesiense; settings: Trypanosoma brucei
[5] = African trypanosome bloodstream form growth inhibition – STIB900 strain, plate reader, dry powder, dose response (AID 651894); type: functional, cell-based
[6] = intracellular Trypanosoma cruzi inhibitors in host cells – cell-based, plate reader, cherry-pick samples, set 3, dose response (AID 651818); type: functional;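 further: compounds incubated with infected cells for about four days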
[7] = antileishmanial activity on axenic amastigotes – plate reader, cherry pick, dose response (AID 651891); type: functional, cell-based; settings: Leishmania donovani
[8] = L6 myocyte viability loss – cell-based, plate reader, cherry-pick, cytotoxicity control, dose response (AID 651896); type: functional
[9] = Trypanosoma cruzi replication inhibitors in host cells – cell-based, plate reader, dry powder samples, dose response (AID 651845); type: functional
[10] = intracellular Chagas parasite inhibition in myoblasts – Tulahuen strain, L-6 host cells, dry powder, dose response (AID 651890); type: functional, cell-based
[11] = host muscle cell viability loss – plate reader, dry powder, counter-screen for T. cruzi inhibitor project, dose response (AID 651895); type: functional, cell-based
[12] = antimalarial activity against erythrocytic parasites – NF54 strain, plate reader, dry powder, dose response (AID 651889); type: functional, cell-based
HEK293 = experiment: viability loss in HEK293T cells – cell-based, ATP luminescence, cherry-pick samples, cytotoxicity control, dose response (AID 687005); type: functional; settings: Homo sapiens;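 further: cells exposed to compound for 48 hours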
[13] = blockers of HIV-1 envelope-mediated cell-cell fusion – cherry-pick, dose response (AID 652057); type: functional, cell-based
[14] = HEK293 Cytotoxicity Assay Measured in Cell-Based System Using Plate Reader - 7071-01_Inhibitor_Dose_CherryPick_Activity_Set2.; type: functional
[15] = inhibition of Env-driven cell fusion – HIV entry, plate reader, dry powder, dose response (AID 687023); type: functional, cell-based
[16] = HIV-1 AD8 envelope cell-cell fusion blockers – cherry-pick, dose response (AID 652062); type: functional, cell-based;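 further: luciferase signal from cell-cell fusion driven by HIV-1 clade B AD8 Env; potency is for inhibitors of fusion seen as a drop in luminescence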
[17] = mouse fibroblast viability loss – cell-based, dry powder samples, cytotoxicity control, dose response (AID 651844); type: functional; settings: NIH3T3
[18] = mouse embryonic fibroblast toxicity – cell-based, plate reader, dry powder, set 2, cytotoxicity control, dose response (AID 652280); type: functional; settings: NIH3T3
[19] = target: Disintegrin and metalloproteinase domain-containing protein 17 (Homo sapiens, UniProt P78536); experiment: exosite inhibitors of ADAM17, dose response, biochemical (AID 743260)
[20] = inhibition of ADAM10 peptide cleavage – biochemical, FRET peptide substrate, recombinant human ADAM10, selectivity assay for ADAM17 exosite inhibitor project, dose response (AID 743259);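 further: ADAM10 enzyme cleaving a FRET peptide substrate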
[21] = growth inhibition of replicating M. tuberculosis, dose response, counter-screen, dry powder, IC90 (AID 651617); type: functional; settings: Mycobacterium tuberculosis
[22] = inhibitors of non-replicating M. tuberculosis, dose response, luciferase, dry powder (AID 651619); type: functional; settings: Mycobacterium tuberculosis
[23] = inhibitors of non-replicating M. tuberculosis, dose response, luciferase, dry powder (AID 651620); type: functional; settings: Mycobacterium tuberculosis
[24] = kidney cell line viability loss – HEK293T, luminescence plate reader, powder samples, set 4, cytotoxicity control, dose response (AID 651863); type: functional, cell-based; settings: HEK293
[25] = MITF Orthogonal Assay: SK-MEL-5 CTG Assay Measured in Cell-Based System Using Plate Reader - 2084-02_Inhibitor_Dose_DryPowder_Activity_Set7.; type: functional
[26] = inhibitors of TRPM1-promoter reporter in SK-MEL-5 – cell-based, luciferase, dry powder, set 8, MITF inhibitor project, dose response (AID 624430); type: functional
[27] = MITF: Counter assay: A375 proliferation Measured in Cell-Based System Using Plate Reader - 2084-03_Inhibitor_Dose_DryPowder_Activity_Set8.; type: functional; settings: A-375
[28] = viability loss in MITF-independent A375 cells – cell-based, CellTiter-Glo luminescence, dry powder, set 2, counter-screen for MITF inhibitor project, dose response (AID 624489); type: functional;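 further: actives are compounds lowering A375 viability meaning general cytotoxicity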
[29] = cytotoxicity in MITF-independent A375 cells – cell-based, CellTiter-Glo luminescence, dry powder, set 4, counter-screen for MITF inhibitor project, dose response (AID 624364); type: functional; settings: A-375;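 further: A375 melanoma cells are MITF independent so this is a counter screen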
[30] = P. falciparum Dd2 growth inhibitors, dose response, SYBR Green, cherry-picked samples (AID 1159567); type: functional, cell-based
[31] = YAP1 overexpression rescue of CTGF inhibition – DLD1 cells, RT-qPCR, cherry-pick, mechanism study for YAP1 pathway inhibitor project, dose response (AID 1053127); type: functional, cell-based; settings: DLD-1
[32] = CTGF mRNA reduction in DLD1 cells – cell-based, DLD1 colon cancer, RT-qPCR, cherry-pick, dose response (AID 1053122); type: functional; settings: Cancer cell lines

Chain of Disintegrin and metalloproteinase domain-containing protein 17 (P78536 whole entry, the tested form may be a part): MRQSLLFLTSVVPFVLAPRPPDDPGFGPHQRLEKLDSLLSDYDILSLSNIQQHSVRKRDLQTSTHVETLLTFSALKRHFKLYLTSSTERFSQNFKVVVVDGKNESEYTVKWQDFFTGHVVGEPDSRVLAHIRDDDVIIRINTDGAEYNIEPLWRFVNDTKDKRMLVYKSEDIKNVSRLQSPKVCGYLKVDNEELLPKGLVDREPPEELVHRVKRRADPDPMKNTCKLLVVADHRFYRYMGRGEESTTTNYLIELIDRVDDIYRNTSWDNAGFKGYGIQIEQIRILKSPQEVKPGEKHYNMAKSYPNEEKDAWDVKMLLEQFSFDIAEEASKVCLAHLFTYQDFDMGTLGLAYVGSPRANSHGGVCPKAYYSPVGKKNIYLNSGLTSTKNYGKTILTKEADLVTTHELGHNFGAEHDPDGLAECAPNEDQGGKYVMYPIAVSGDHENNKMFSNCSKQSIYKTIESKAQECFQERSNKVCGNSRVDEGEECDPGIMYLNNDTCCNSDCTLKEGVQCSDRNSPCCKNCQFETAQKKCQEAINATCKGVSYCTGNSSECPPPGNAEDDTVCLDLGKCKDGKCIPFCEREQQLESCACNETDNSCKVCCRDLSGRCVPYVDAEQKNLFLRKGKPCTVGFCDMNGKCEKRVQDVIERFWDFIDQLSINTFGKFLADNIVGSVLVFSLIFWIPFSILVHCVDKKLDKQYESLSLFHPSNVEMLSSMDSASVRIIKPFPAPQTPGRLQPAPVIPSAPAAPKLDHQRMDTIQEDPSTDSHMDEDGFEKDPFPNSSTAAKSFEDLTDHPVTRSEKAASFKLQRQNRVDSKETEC

For `C[C@H]1CN([C@@H](C)CO)C(=O)c2cccc(NC(=O)c3ccncc3)c2O[C@H]1CN(C)Cc1ccc(Oc2ccccc2)cc1`, the AC50 [1] was 0.0116 µM (active), the IC50 [2] was 0.00042 µM (active) and the IC50 [3] was > 100 µM (inactive). The IC50 [4] was 6.15 µM (inactive), the IC50 [5] was 3.62 µM (inactive) and the AC50 [6] was 0.08 µM (active). The IC50 [7] was > 100 µM (inactive), the IC50 [8] was 43.7 µM (inactive) and the AC50 [9] was 0.0252 µM (active). For the same molecule, the IC50 [10] was 0.059 µM (active), the IC50 [11] was 47.5 µM (inactive) and the IC50 [12] was 2.94 µM (inactive).

In the case of `C[C@H]1CCCCO[C@@H](CN(C)Cc2ccncc2)[C@@H](C)CN([C@@H](C)CO)C(=O)c2cc(NC(=O)Nc3ccccc3)ccc2O1`, the AC50 (HEK293) is reported as 33.2 µM (active), the AC50 [13] is reported as 0.764 µM (active) and the AC50 [14] is reported as 33.2 µM (active). For the same molecule, the AC50 [15] was 10.7 µM (active) and the AC50 [16] was 32.9 µM (active).

With `CC(C)N1C[C@H](C)[C@@H](CN(C)Cc2ccc(Oc3ccccc3)cc2)Oc2c(NC(=O)C3CCNCC3)cccc2C1=O` the AC50 [1] was 0.983 µM (active), the AC50 [17] was 8.99 µM (active) and the AC50 [18] was 8.99 µM (active). For the same molecule, the AC50 [9] was 0.983 µM (active).

With `COC(=O)C1=C(C)N(Cc2cccc(C(F)(F)F)c2)C(NCc2ccc3c(c2)OCO3)=NC1c1ccc(F)cc1` (stereo unspecified) the IC50 [19] was > 69.5 µM (inactive) and the IC50 [20] was > 69.5 µM (inactive).

With `COCCSc1nnc(-c2ccccc2)o1` the IC90 [21] was 16 µM (active), the IC90 [22] was 4 µM (active) and the IC90 [23] was 4 µM (active).

In the case of `Cc1cc(C)c(S(=O)(=O)Nc2ncnc3ccccc23)c(C)c1`, the AC50 [24] is reported as 44.2 µM (active).

In the case of `O=C1C=C(Nc2ccccc2Cl)C(=O)c2ccccc21`, the AC50 [25] is reported as 0.172 µM (active), the AC50 [26] is reported as 5.41 µM (active) and the AC50 [27] is reported as > 70 µM (inactive).

For `O=C1C(Nc2ccccc2)=C(N2CCOCC2)C(=O)c2ccccc21`, the AC50 [28] was 65.7 µM (active), the AC50 ([28]; A-375) was > 70 µM (inactive) and the AC50 [29] was > 70 µM (inactive).

For `CO[C@@H]1CN(C)C(=O)c2ccc(NC(=O)c3nc4ccccc4s3)cc2OC[C@@H](C)N(Cc2cccnc2)C[C@H]1C`, the AC50 [30] was 4.6 µM (active), the AC50 [31] was 19.6 µM (active) and the AC50 [32] was 5.03 µM (active).

Reference: ChEMBL document CHEMBL1201862, “PubChem BioAssay data set” (2004)
